Earlier results as cited in paper PMC12307812 (Nature Communications, 2025).

Tested on: TMPRSS2
Design: method as in earlier work
Conditions: top 50 compounds by AUC, Figure 2 source data; cited from earlier work

Point of comparison: `COc1cc(C)c(Cc2cnc(N)nc2N)cc1OC` [NCGC00167523-03], “max response (%)” value -8.206%. Against it:
- C=CCN1CC[C@]23CCCC[C@H]2[C@H]1Cc1ccc(O)cc13 [NCGC00162247-06] — lower, -23.7786%
- C=CC[C@@H]1/C=C(\C)C[C@H](C)C[C@H](OC)[C@H]2O[C@@](O)(C(=O)C(=O)N3CCCC[C@H]3C(=O)O[C@H](/C(C)=C/[C@@H]3CC[C@@H](O)[C@H](OC)C3)[C@H](C)[C@@H](O)CC1=O)[C@H](C)C[C@@H]2OC [NCGC00163470-27] — lower, -28.9699%
- O=[N+]([O-])C(Br)(CO)CO [NCGC00164057-03] — higher, -6.336%
- Cl.NCC1CCC(C(=O)Oc2ccc(CCC(=O)O)cc2)CC1 (stereo not drawn) [NCGC00164584-03] — lower, -89.9618%
- O=C(O)CCNC(=O)c1ccc(N=Nc2ccc(O)c(C(=O)O)c2)cc1 [NCGC00164634-02] — lower, -22.1756%
- N=C(N)c1ccc(/C=C/c2ccc(C(=N)N)cc2O)cc1 [NCGC00166289-02] — lower, -82.5214%
- C=C1CC[C@H](O)C/C1=C\C=C1/CCC[C@]2(C)[C@@H]([C@H](C)/C=C/[C@H](C)C(C)C)CC[C@@H]12 [NCGC00166307-05] — lower, -20.0382%
- C#C[C@]1(O)CC[C@H]2[C@@H]3CCC4=CC(=O)CCC4=C3C=C[C@@]21CC [NCGC00167457-02] — lower, -24.7304%
- CN(C)C(=O)COC(=O)Cc1ccc(OC(=O)c2ccc(N=C(N)N)cc2)cc1.CS(=O)(=O)O [NCGC00167526-02] — lower, -95.3053%
- Cl.NCCNC(=O)c1ccc(Cl)cn1 [NCGC00167737-02] — lower, -9.8855%
- CC[C@H](C)[C@H]1O[C@]2(C=C[C@@H]1C)C[C@@H]1C[C@@H](C/C=C(\C)[C@@H](O[C@H]3C[C@H](OC)[C@@H](O[C@H]4C[C@H](OC)[C@@H](O)[C@H](C)O4)[C@H](C)O3)[C@@H](C)/C=C/C=C3\CO[C@@H]4[C@H](O)C(C)=C[C@@H](C(=O)O1)[C@]34O)O2 [NCGC00168290-05] — lower, -26.1435%
- N=C(N)c1ccc(OCCCCCOc2ccc(C(=N)N)cc2)cc1 [NCGC00179034-07] — lower, -64.313%
- CN(C/C=C/c1ccccc1)Cc1cccc2ccccc12.Cl [NCGC00179332-03] — lower, -15.3589%
- Clc1cccc(C(c2ccc3nc[nH]c3c2)n2ccnc2)c1 (stereo not drawn) [NCGC00181034-03] — lower, -10.9542%
- CCOC(=O)COc1ccc2c(=O)cc(-c3ccccc3)oc2c1 [NCGC00182622-03] — lower, -10.6731%
- CCOC(=O)Cn1cccc1-c1nc(-c2ccc(OC)cc2)c(-c2ccc(OC)cc2)s1 [NCGC00182996-01] — lower, -15.3817%
- CN[C@H]1C[C@@H](N)[C@H](O)[C@@H](O[C@@H]2O[C@H](CO)[C@H](O)[C@@H]3OC4(O[C@H]23)O[C@H]([C@@H](N)CO)[C@H](O)[C@H](O)[C@H]4O)[C@@H]1O (stereo partly drawn) [NCGC00188433-02] — lower, -14.1688%
- N=C(N)c1ccc(OCCCOc2ccc(C(=N)N)cc2Br)c(Br)c1 [NCGC00189076-01] — lower, -77.315%
- CS(=O)(=O)O.C[C@H](N)C(=O)N[C@@H](C)C(=O)NC1[C@H]2CN(c3nc4c(cc3F)c(=O)c(C(=O)O)cn4-c3ccc(F)cc3F)C[C@@H]12 (stereo partly drawn) [NCGC00261969-01] — lower, -25.1766%
- CC=CC1C(C(=O)OCc2c(F)c(F)c(COC)c(F)c2F)C1(C)C (stereo not drawn) [NCGC00319021-01] — lower, -16.0283%
